Experimental data as given in patent US9247759B2, “Identification of human T2R receptors that respond to bitter compounds that elicit the bitter taste in compositions, and the use thereof in assays to identify compounds that inhibit (block) bitter taste in compositions and use thereof” (SENOMYX, INC., priority 2007, dated 2016).

Tests used:
[1] = biological target: hT2R71 (Homo sapiens (Human), UniProt P59536); assay: hT2R panel inhibition, transient HEK293 G16g44, agonist Picric Acid 10 μM; assay type: cell-based; settings: HEK293, compound at 25 μM; receptor activated to EC80 with the corresponding agonist; read-out: screening result against bitter receptor 71
Procedure: (§1) Specifically, in order to evaluate the inhibitory selectivity of the Compound C compound, this compound was tested against 22 human T2Rs which were deorphaned by Senomyx. These receptors and the bitter ligands that activate these human T2Rs are reported in earlier patent applications which are incorporated by reference herein. These 22 human T2Rs are hT2R1, 3, 4, 5, 7, 8, 9, 10, 13, 14, 16, 44, 51, 54, 55, 61, 63, 64, 65, 67, 71 and 75. The amino acid and nucleic acid sequences of all of these T2Rs may be found in these earlier patent applications. These human T2Rs were each individually transiently transfected into HEK293 cells that stably express the promiscuous G protein G16g44 and functional assays were effected using these receptors as disclosed in these same patent applications. […] The ligands were used at EC80 concentration levels. The list of bitter ligands utilized and the tested ligand concentrations are contained in Table 5 of this example.
(§2) Relating to the foregoing, FIG. 5 contains experimental results wherein Compound C was tested with different agonist compounds. The inhibition activity is represented by the reduction of receptor activity in the presence of Compound C. […] These 13 hT2Rs are hT2R3, 7, 10, 14, 16, 44, 51, 55, 61, 63, 64, 65, and 71.

[2] = test system: hT2R63; assay: hT2R panel inhibition, transient HEK293 G16g44, agonist Caffeine 1 mM or Andrographolide 100 μM; assay type: cell-based, human; settings: compound at 25 μM; receptor activated to EC80 with the corresponding agonist
Outline: (§3)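 The test compound's selectivity was profiled by challenging each transiently expressed human T2R with its activating bitter ligand at an EC80 concentration, inhibition being the reduction of receptor signalling it produced.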

[3] = biological target: hT2R16 (Homo sapiens (Human), UniProt Q9NYV7); assay: hT2R panel inhibition, transient HEK293 G16g44, agonist Salicin 1 mM; assay type: cell-based; settings: HEK293, compound at 25 μM; receptor activated to EC80 with the corresponding agonist; read-out: screening result against bitter receptor 16
Procedure: as §1, §2

[4] = biological target: hT2R61 (Homo sapiens (Human), UniProt P59537); assay: hT2R panel inhibition, transient HEK293 G16g44, agonist Aristolochic Acid 25 nM; assay type: cell-based; settings: HEK293, compound at 25 μM; receptor activated to EC80 with the corresponding agonist; read-out: screening result against bitter receptor 61
Outline: as §3

[5] = test system: hT2R44; assay: hT2R panel inhibition, transient HEK293 G16g44, agonist Denatonium 0.5 μM; assay type: cell-based, human; settings: compound at 25 μM; receptor activated to EC80 with the corresponding agonist
Procedure: as §1, §2

[6] = biological target: hT2R51 (Homo sapiens (Human), UniProt P59533); assay: hT2R panel inhibition, transient HEK293 G16g44, agonist Prop 2.5 μM; assay type: cell-based; settings: HEK293, compound at 25 μM; receptor activated to EC80 with the corresponding agonist; read-out: screening result against bitter receptor 51
Procedure: as §1, §2

[7] = test system: hT2R54; assay: hT2R panel inhibition, transient HEK293 G16g44, agonist Ranitidine 5 mM; assay type: cell-based, human; settings: compound at 25 μM; receptor activated to EC80 with the corresponding agonist
Procedure: as §1, §2

[8] = test system: hT2R67; assay: hT2R panel inhibition, transient HEK293 G16g44, agonist Andrographolide 5 μM; assay type: cell-based, human; settings: compound at 25 μM; receptor activated to EC80 with the corresponding agonist
Procedure: as §1, §2

[9] = test system: hT2R65; assay: hT2R panel inhibition, transient HEK293 G16g44, agonist Oleuropein 1 mM; assay type: cell-based, human; settings: compound at 25 μM; receptor activated to EC80 with the corresponding agonist
Procedure: as §1, §2

[10] = biological target: hT2R64 (Homo sapiens (Human), UniProt P59538); assay: hT2R panel inhibition, transient HEK293 G16g44, agonist Aristolochic Acid 1 μM; assay type: cell-based; settings: HEK293, compound at 25 μM; receptor activated to EC80 with the corresponding agonist; read-out: screening result against bitter receptor 64
Outline: as §3

[11] = test system: hT2R55; assay: hT2R panel inhibition, transient HEK293 G16g44, agonist Cinchonine 150 μM; assay type: cell-based, human; settings: compound at 25 μM; receptor activated to EC80 with the corresponding agonist
Procedure: as §1, §2

[12] = biological target: T1, hT2R14 (Homo sapiens (Human), UniProt Q9NYV8); assay: hT2R panel inhibition, transient HEK293 G16g44, agonist Aristolochic Acid 2 μM; assay type: cell-based; settings: HEK293, compound at 25 μM; receptor activated to EC80 with the corresponding agonist; read-out: screening result against bitter receptor 14
Outline: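 Each hT2R was transiently transfected into HEK293 cells stably expressing G16g44 and assayed functionally for inhibition of agonist response. Agonists were applied at EC80: andrographolide at 0.5 mM for hT2R8 and aristolochic acid at 2 μM for hT2R14.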

[13] = biological target: hT2R5 (Homo sapiens (Human), UniProt Q9NYW4); assay: hT2R panel inhibition, transient HEK293 G16g44, agonist Picoline 10 mM; assay type: cell-based; settings: HEK293, compound at 25 μM; receptor activated to EC80 with the corresponding agonist; read-out: screening result against bitter receptor 5
Procedure: as §1, §2

[14] = biological target: hT2R10 (Homo sapiens (Human), UniProt Q9NYW0); assay: hT2R panel inhibition, transient HEK293 G16g44, agonist Strychnine 50 μM; assay type: cell-based; settings: HEK293, read-out: screening result against bitter receptor 10, compound at 25 μM; receptor activated to EC80 with the corresponding agonist
Procedure: as §1, §2

[15] = biological target: hT2R3 (Homo sapiens (Human), UniProt Q9NYW6); assay: hT2R panel inhibition, transient HEK293 G16g44, agonist Chloroquine pH6.5 50 μM; assay type: cell-based; settings: HEK293, compound at 25 μM; receptor activated to EC80 with the corresponding agonist; read-out: screening result against bitter receptor 3
Procedure: as §1, §2

[16] = biological target: hT2R7 (Homo sapiens (Human), UniProt Q9NYW3); assay: hT2R panel inhibition, transient HEK293 G16g44, agonist Chloroquine pH6.5 10 mM; assay type: cell-based; settings: HEK293, compound at 25 μM; receptor activated to EC80 with the corresponding agonist; read-out: screening result against bitter receptor 7
Procedure: as §1, §2

[17] = biological target: T1, hT2R14; assay: hT2R14 antagonist high-throughput FLIPR assay, stable cell line with G16g44, agonist aristolochic acid; assay type: cell-based; settings: read-out: IC50 on hT2R14 bitter receptor
Outline: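 HEK293 cells stably expressing hT2R14 with chimeric G16g44 were stimulated with aristolochic acid (3 μM), giving 70-80% of maximal receptor activity. Test compounds were added together with the agonist, and antagonism was read as fluorescent calcium signal on FLIPR.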

hT2R16, sequence (Q9NYV7 whole entry): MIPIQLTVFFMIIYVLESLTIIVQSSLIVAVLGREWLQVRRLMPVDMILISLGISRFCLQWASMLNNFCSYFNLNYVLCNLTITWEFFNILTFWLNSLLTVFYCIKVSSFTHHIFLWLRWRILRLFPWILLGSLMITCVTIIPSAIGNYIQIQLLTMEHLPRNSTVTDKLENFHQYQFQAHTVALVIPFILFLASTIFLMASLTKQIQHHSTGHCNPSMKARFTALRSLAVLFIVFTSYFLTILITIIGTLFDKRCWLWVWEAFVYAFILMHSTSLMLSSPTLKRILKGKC
hT2R71, sequence (P59536 whole entry): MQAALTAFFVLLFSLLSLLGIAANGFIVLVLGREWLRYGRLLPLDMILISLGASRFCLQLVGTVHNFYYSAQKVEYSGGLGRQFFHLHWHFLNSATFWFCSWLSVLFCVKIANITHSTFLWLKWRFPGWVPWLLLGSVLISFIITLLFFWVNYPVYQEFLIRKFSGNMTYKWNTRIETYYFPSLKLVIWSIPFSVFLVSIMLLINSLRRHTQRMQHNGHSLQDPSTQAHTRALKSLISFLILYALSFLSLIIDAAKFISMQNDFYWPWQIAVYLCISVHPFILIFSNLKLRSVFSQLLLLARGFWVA
hT2R61, sequence (P59537 whole entry): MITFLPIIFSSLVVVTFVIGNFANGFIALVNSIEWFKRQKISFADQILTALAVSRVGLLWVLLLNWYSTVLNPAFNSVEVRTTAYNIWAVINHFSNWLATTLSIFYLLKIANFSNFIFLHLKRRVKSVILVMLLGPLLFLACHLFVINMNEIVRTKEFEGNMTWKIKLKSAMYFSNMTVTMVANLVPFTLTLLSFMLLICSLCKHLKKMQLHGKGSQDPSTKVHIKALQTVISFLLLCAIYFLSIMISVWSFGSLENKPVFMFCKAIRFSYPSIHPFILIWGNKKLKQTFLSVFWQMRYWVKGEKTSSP
hT2R3, sequence (Q9NYW6 whole entry): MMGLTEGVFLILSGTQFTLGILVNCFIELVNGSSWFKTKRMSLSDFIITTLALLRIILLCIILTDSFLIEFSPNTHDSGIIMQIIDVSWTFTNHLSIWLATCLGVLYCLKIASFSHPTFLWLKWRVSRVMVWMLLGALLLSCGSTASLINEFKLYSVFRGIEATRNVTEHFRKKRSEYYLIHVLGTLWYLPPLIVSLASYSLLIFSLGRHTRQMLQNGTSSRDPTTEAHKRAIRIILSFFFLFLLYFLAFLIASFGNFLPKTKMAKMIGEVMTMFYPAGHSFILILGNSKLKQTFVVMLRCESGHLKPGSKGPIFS
hT2R64, sequence (P59538 whole entry): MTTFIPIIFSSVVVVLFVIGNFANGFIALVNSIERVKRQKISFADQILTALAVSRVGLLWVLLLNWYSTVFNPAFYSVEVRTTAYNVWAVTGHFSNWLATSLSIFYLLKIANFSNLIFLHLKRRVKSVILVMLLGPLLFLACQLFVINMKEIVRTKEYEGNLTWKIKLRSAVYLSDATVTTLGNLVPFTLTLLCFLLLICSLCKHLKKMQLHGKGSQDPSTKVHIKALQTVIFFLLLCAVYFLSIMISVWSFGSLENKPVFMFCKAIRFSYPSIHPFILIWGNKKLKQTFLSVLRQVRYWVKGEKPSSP
hT2R10, sequence (Q9NYW0 whole entry): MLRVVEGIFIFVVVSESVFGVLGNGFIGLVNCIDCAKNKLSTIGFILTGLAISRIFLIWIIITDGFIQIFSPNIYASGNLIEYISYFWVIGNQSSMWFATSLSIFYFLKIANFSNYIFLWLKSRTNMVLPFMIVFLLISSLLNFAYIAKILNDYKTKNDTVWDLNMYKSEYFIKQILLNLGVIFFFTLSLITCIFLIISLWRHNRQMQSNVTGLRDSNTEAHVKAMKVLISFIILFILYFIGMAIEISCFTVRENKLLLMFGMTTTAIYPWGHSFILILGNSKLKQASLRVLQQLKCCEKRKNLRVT
T1 sequence (Q9NYV8 whole entry): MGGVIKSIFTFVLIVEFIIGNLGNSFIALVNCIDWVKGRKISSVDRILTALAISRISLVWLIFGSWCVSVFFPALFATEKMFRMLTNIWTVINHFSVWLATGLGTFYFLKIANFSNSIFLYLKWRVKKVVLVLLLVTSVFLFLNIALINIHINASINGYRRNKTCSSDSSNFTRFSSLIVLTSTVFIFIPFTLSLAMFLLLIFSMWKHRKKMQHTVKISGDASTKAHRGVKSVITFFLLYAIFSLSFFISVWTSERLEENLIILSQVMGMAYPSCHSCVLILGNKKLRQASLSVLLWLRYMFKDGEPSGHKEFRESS
hT2R51, sequence (P59533 whole entry): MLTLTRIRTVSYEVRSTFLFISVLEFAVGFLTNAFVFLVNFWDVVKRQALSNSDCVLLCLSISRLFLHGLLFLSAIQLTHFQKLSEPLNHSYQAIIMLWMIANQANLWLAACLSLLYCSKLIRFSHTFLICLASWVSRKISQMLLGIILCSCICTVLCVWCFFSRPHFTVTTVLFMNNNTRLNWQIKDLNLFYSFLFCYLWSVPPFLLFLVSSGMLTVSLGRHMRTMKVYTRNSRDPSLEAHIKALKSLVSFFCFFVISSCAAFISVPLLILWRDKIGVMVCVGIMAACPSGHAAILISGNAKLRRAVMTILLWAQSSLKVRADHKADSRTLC
hT2R5, sequence (Q9NYW4 whole entry): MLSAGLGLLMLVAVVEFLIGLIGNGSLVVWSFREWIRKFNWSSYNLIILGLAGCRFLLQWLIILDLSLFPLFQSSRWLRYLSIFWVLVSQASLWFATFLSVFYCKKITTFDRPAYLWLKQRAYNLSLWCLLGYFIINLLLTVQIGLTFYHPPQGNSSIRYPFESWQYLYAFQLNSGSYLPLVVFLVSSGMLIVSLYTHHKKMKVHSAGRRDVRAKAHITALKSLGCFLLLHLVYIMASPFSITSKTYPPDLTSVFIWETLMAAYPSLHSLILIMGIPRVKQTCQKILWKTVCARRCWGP
hT2R7, sequence (Q9NYW3 whole entry): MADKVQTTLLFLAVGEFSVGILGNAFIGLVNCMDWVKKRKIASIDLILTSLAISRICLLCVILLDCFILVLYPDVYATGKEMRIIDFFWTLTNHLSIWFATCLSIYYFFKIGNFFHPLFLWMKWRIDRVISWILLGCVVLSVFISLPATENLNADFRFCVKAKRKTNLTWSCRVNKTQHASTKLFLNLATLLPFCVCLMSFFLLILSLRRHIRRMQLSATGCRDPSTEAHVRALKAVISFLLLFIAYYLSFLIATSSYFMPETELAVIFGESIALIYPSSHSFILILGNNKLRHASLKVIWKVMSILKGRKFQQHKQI

| SMILES | inhibition at 25 µM [1] [%] | screening result against bitter receptor 63 [2] | inhibition at 25 µM [3] [%] | inhibition at 25 µM [4] [%] | screening result against bitter receptor 44 [5] | inhibition at 25 µM [6] [%] | screening result against bitter receptor 54 [7] | screening result against bitter receptor 67 [8] | screening result against bitter receptor 65 [9] | inhibition at 25 µM [10] [%] | screening result against bitter receptor 55 [11] | inhibition at 25 µM [12] [%] | inhibition at 25 µM [13] [%] | inhibition at 25 µM [14] [%] | inhibition at 25 µM [15] [%] | inhibition at 25 µM [16] [%] | IC50 [17] [µM] |
| --- | --- | --- | --- | --- | --- | --- | --- | --- | --- | --- | --- | --- | --- | --- | --- | --- | --- |
| O=C(O)c1ccc(S(=O)(=O)N(Cc2ccccc2)Cc2cccc(F)c2)cc1 [Example 5-79, 4-(N-benzyl-N-(3-fluorobenzyl)sulfamoyl)benzoic acid] | 60 to 80 | ++++ (80% or greater inhibition = ++++) | 20 to 40 | > 80 | ++ (40% to 60% inhibition = ++) | > 80 | + (20% to 40% inhibition = +) | + (20% to 40% inhibition = +) | ++ (40% to 60% inhibition = ++) | 60 to 80 | +++ (60% to 80% inhibition = +++) | > 80 | 20 to 40 | 20 to 40 | 40 to 60 | – | – |
| COc1ccc(CCN(Cc2ccccc2)S(=O)(=O)c2ccc(C(=O)O)cc2)cc1 [Example 5-81, 4-(N-benzyl-N-(4-methoxyphenethyl)sulfamoyl)benzoic acid] | 20 to 40 | +++ (60% to 80% inhibition = +++) | 20 to 40 | 60 to 80 | ++ (40% to 60% inhibition = ++) | 20 to 40 | – | + (20% to 40% inhibition = +) | + (20% to 40% inhibition = +) | 40 to 60 | +++ (60% to 80% inhibition = +++) | > 80 | – | 20 to 40 | 20 to 40 | 20 to 40 | – |
| COc1ccc(CN(CCc2ccccc2)S(=O)(=O)c2ccc(C(=O)O)cc2)cc1 [Example 5-19, 4-(N-(4-methoxybenzyl)-N-phenethylsulfamoyl)benzoic acid] | 20 to 40 | – | 20 to 40 | – | ++ (40% to 60% inhibition = ++) | – | + (20% to 40% inhibition = +) | – | + (20% to 40% inhibition = +) | > 80 | ++++ (80% or greater inhibition = ++++) | > 80 | 20 to 40 | 20 to 40 | 20 to 40 | – | 4.58 |
| COc1ccc(CN(c2ccccc2)S(=O)(=O)c2ccc(C(=O)O)cc2)cc1 [Example 5-18, 4-(N-(4-methoxybenzyl)-N-phenylsulfamoyl)benzoic acid] | 40 to 60 | +++ (60% to 80% inhibition = +++) | 40 to 60 | 60 to 80 | +++ (60% to 80% inhibition = +++) | – | ++ (40% to 60% inhibition = ++) | – | + (20% to 40% inhibition = +) | > 80 | ++++ (80% or greater inhibition = ++++) | – | – | > 80 | – | – | – |
